Results published in article PMC2680649 (International Journal of Molecular Sciences, 2009).
Like-named read-outs stand apart in the source and are kept apart here.

Key:
hER-α = target: T1, hER-α (Homo sapiens, UniProt P03372); experiment: cell-based; assay type: cell-based
T1 construct: expressed in transfected cells; host or cells: HELN (HeLa carrying a stably transfected estrogen-responsive luciferase reporter)

hER-β = target: T2, hER-β (Homo sapiens, UniProt Q92731); experiment: cell-based; conditions: read-out: EC50, half-maximal luciferase activity, transcriptional activation through ER β
T2 construct: expressed in transfected cells; host or cells: HELN (HeLa carrying a stably transfected estrogen-responsive luciferase reporter)

human ERα = test system: human ERα; design: method as in PMID 9751507; conditions: cells transfected with human ERα; cited from earlier work
human ERβ = test system: human ERβ; design: method as in PMID 9751507; conditions: cells transfected with human ERβ; cited from earlier work
cytochrome P450 = assay type: in vitro ADME, rat
[1] = In vitro metabolism of zearalenone, rabbit liver microsomal preparation; assay type: in vitro ADME, rabbit (New Zealand); conditions: Rabbit liver microsomes, 1 μM total P450, 50 μM ZEN, NADPH-generating system, pH 7.4, 30 min; n = 4
From the text: (§1) Monkeys (Cynomolgus, Macaca fascicularis), pig (Yucatan), dog (Beagle), rabbit (New Zealand), mouse (CD-1) and rat (Sprague Dawley) liver microsomes, rat 2C Supersomes® were purchased from Gentest (BD Biosciences, NJ, USA). Pools of human livers for female or male were purchased from Xenotech (Tebu-Bio, Le Perray en Yvelines, France). Human CYP Bactosomes® were provided by Cypex (Tebu-Bio, Le Perray en Yvelines, France).

[2] = In vitro metabolism of zearalenone, pig liver microsomal preparation; assay type: in vitro ADME, pig (Yucatan); conditions: Pig liver microsomes, 1 μM total P450, 50 μM ZEN, NADPH-generating system, pH 7.4, 30 min; n = 4
From the text: as §1

[3] = In vitro metabolism of zearalenone, human female liver microsomal preparation; assay type: in vitro ADME; conditions: Human Female liver microsomes, 1 μM total P450, 50 μM ZEN, NADPH-generating system, pH 7.4, 30 min; n = 4
From the text: as §1

[4] = ZEN incubation with rat liver cytosolic fraction; conditions: rat liver cytosol, presence of NADPH
[5] = ZEN incubation with rat liver post-mitochondrial fraction (S9)
[6] = In vitro metabolism of zearalenone, PB-treated rat liver microsomal preparation; conditions: PB-treated rat liver microsomes, 1 μM total P450, 50 μM ZEN, NADPH-generating system, pH 7.4, 30 min; n = 4
[7] = In vitro metabolism of zearalenone, mouse liver microsomal preparation; assay type: in vitro ADME, mouse (CD-1); conditions: Mouse liver microsomes, 1 μM total P450, 50 μM ZEN, NADPH-generating system, pH 7.4, 30 min; n = 4
From the text: as §1

[8] = In vitro metabolism of zearalenone, rat liver microsomal preparation; assay type: in vitro ADME, rat (Sprague Dawley); conditions: Rat (untreated) liver microsomes, 1 μM total P450, 50 μM ZEN, NADPH-generating system, pH 7.4, 30 min; n = 4
From the text: as §1

[9] = In vitro metabolism of zearalenone, dog liver microsomal preparation; assay type: in vitro ADME, dog (Beagle); conditions: Dog liver microsomes, 1 μM total P450, 50 μM ZEN, NADPH-generating system, pH 7.4, 30 min; n = 4
From the text: as §1

[10] = In vitro metabolism of zearalenone, Cynomolgus monkey liver microsomal preparation; assay type: in vitro ADME, Macaca fascicularis; conditions: Cynomolgus monkey liver microsomes, 1 μM total P450, 50 μM ZEN, NADPH-generating system, pH 7.4, 30 min; n = 4
From the text: as §1

[11] = In vitro metabolism of zearalenone, human male liver microsomal preparation; assay type: in vitro ADME; conditions: Human Male liver microsomes, 1 μM total P450, 50 μM ZEN, NADPH-generating system, pH 7.4, 30 min; n = 4
From the text: as §1

T1 sequence (P03372 whole entry): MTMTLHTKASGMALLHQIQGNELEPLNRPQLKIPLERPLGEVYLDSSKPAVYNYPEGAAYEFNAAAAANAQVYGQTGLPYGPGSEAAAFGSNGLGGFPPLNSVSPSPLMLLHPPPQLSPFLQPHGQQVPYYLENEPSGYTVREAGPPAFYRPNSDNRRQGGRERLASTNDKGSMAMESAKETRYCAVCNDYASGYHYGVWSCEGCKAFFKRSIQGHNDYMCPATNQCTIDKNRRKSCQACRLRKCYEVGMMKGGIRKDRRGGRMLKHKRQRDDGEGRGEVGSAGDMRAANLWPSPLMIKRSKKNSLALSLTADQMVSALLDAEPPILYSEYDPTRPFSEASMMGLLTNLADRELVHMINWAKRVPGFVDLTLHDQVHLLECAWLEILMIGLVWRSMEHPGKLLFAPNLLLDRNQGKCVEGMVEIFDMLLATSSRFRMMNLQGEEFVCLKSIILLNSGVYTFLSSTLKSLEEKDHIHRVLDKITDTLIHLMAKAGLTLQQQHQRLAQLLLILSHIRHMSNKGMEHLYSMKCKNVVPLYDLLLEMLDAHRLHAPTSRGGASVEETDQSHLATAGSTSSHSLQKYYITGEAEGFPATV
T2 sequence (Q92731 whole entry): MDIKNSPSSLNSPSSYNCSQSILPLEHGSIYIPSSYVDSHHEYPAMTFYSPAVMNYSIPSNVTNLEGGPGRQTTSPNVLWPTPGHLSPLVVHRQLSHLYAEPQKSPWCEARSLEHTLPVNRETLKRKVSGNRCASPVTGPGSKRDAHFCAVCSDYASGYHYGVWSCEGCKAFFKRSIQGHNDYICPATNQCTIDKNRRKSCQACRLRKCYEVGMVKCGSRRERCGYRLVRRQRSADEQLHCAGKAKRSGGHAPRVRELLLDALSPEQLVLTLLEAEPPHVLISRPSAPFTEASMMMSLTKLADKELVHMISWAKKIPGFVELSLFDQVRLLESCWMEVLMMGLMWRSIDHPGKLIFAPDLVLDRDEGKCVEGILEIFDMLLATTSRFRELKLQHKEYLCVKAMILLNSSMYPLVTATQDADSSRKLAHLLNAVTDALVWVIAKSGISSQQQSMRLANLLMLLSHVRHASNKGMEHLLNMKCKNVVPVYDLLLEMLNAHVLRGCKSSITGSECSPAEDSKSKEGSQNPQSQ

Question: With `C[C@H]1CCC[C@H](O)CCCCCc2cc(O)cc(O)c2C(=O)O1` [α–ZAL, α-zearalanol] as the molecule, how does the EC50 (hER-α; read-out: EC50, half-maximal luciferase activity, transcriptional activation through ER α, HELN ER-α cells, 16 h at 37 °C, maximal activity with 10 nM E2) read?
Answer: Its EC50 is 0.49 ± 0.9 nM.

Question: With `C[C@H]1CCCC(=O)CCC/C=C/c2cc(O)cc(O)c2C(=O)O1` [ZEN, (3S,11E)-3,4,5,6,9,10-Hexahydro-14,16-dihydroxy-3-methyl-1H-2-benzoxacyclotetradecin-1,7(8H)-dione] as the molecule, how does the EC50 (hER-α) read?
Answer: The EC50 was 11.8 ± 1.9 nM.

Question: What about the EC50 (hER-β) of the same molecule?
Answer: Its EC50 is 11.5 ± 2.5 nM.

Question: What about the “agonist character for ERα” value (human ERα) of the same molecule?
Answer: The value was “full agonist”.

Question: And the “agonist character for ERβ” value (human ERβ)?
Answer: The value was “partial agonist”.

Question: For `[C-]#[O+]` [carbon monoxide], which “effect on formation of OH-ZEN” value (cytochrome P450; carbon monoxide) is on record?
Answer: The value was “inhibited”.

Question: Which “effect on formation of OH-ZEN” value (cytochrome P450) does the source give for `CC(=O)N1CCN(c2ccc(OCC3COC(Cn4ccnc4)(c4ccc(Cl)cc4Cl)O3)cc2)CC1` (stereo not shown) [ketoconazole] here?
Answer: Its value is “inhibited”.

Question: For β-zearalenol [β-ZOL], which “formation rate of ZEN metabolite” value [1] is on record?
Answer: The value was 1.9 ± 0.4 nmoles/30 min/nmole P450.

Question: And the “formation rate of ZEN metabolite” value [2]?
Answer: The value was 10.0 ± 1.8 nmoles/30 min/nmole P450.

Question: What about the “formation rate of ZEN metabolite” value [3] of the same molecule?
Answer: Its value is 0.3 ± 0.1 nmoles/30 min/nmole P450.

Question: And the “metabolite formed in cytosolic fraction” value [4]?
Answer: Its value is “formed”.

Question: What about the “metabolite found in post-mitochondrial incubation (fraction S9)” value [5] of the same molecule?
Answer: The value was “in association with β-ZOL”.

Question: And the “formation rate of ZEN metabolite” value [6]?
Answer: The value was 3.3 ± 0.4 nmoles/30 min/nmole P450.

Question: For `C[C@H]1CCC[C@H](O)CCC/C=C/c2cc(O)cc(O)c2C(=O)O1` [α-ZOL, α-zearalenol], which “formation rate of ZEN metabolite” value [7] is on record?
Answer: The value was 41.3 ± 11.5 nmoles/30 min/nmole P450.

Question: What about the “formation rate of ZEN metabolite” value [8] of the same molecule?
Answer: The value was 14.7 ± 2.5 nmoles/30 min/nmole P450.

Question: And the “formation rate of ZEN metabolite” value [1]?
Answer: The value was 2.5 ± 0.4 nmoles/30 min/nmole P450.

Question: And the “formation rate of ZEN metabolite” value [9]?
Answer: The value was 2.8 ± 0.3 nmoles/30 min/nmole P450.

Question: What about the “formation rate of ZEN metabolite” value [2] of the same molecule?
Answer: Its value is 7.4 ± 0.6 nmoles/30 min/nmole P450.

Question: What about the “formation rate of ZEN metabolite” value [10] of the same molecule?
Answer: The value was 4.0 ± 0.4 nmoles/30 min/nmole P450.

Question: What about the “formation rate of ZEN metabolite” value [3] of the same molecule?
Answer: Its value is 3.3 ± 0.5 nmoles/30 min/nmole P450.

Question: And the “formation rate of ZEN metabolite” value [11]?
Answer: Its value is 3.6 ± 0.3 nmoles/30 min/nmole P450.

Question: What about the “metabolite formed in cytosolic fraction” value [4] of the same molecule?
Answer: The value was “formed”.
